Values quoted from earlier work in patent US20020052320A1, “Sustained peptide-release formulation” (Peptech Limited, priority 1996, published 2002).

Columns and labels:
[1] = system: advanced prostatic cancer; settings: monthly subcutaneous injections
prostate cancer in rats = settings: controlled dose over 30 days vs equivalent or double doses of free peptide

SMILES	efficacy compared with orchiectomy [1]	tolerability [1]	suppression of prostate tumour weight, microencapsulated form vs daily subcutaneous free peptide (prostate cancer in rats)	suppression of serum testosterone levels, microencapsulated form vs daily subcutaneous free peptide (prostate cancer in rats)
CC(C)C[C@H](NC(=O)[C@@H](COC(C)(C)C)NC(=O)[C@H](Cc1ccc(O)cc1)NC(=O)[C@H](CO)NC(=O)[C@H](Cc1c[nH]c2ccccc12)NC(=O)[C@H](Cc1cnc[nH]1)NC(=O)[C@@H]1CCC(=O)N1)C(=O)N[C@@H](CCCNC(=N)N)C(=O)N1CCC[C@H]1C(=O)NNC(N)=O [goserelin, 3-[5-oxo-L-prolyl-L-tryptophyl-L-seryl-L-tyrosyl-(3-O-tert-butyl)-D-seryl-L-1eucyl-L-arginyl-L-prolyl]cabazamide acetate]	as effective as orchiectomy	well tolerated		
CC(C)C[C@H](NC(=O)[C@@H](Cc1c[nH]c2ccccc12)NC(=O)[C@H](Cc1ccc(O)cc1)NC(=O)[C@H](CO)NC(=O)[C@H](Cc1c[nH]c2ccccc12)NC(=O)[C@H](Cc1c[nH]cn1)NC(=O)[C@@H]1CCC(=O)N1)C(=O)N[C@@H](CCCNC(=N)N)C(=O)N1CCC[C@H]1C(=O)NCC(N)=O [triptorelin, 5-oxo-L-prolyl-L-histidyl-L-tryptophyl-L-seryl-L-tyrosyl-D-tryptophyl-L-leucyl-L-arginyl-L-prolylglycinamide]			more effective	more effective
